The results in this text go back to ChEMBL document CHEMBL5260804 (ACS Med Chem Lett, 2017).

SMILES strings stand for the structures.

The first experiment has as its system Influenza A virus. Put plainly: Antiviral activity against amantadine-sensitive influenza A virus A/WSN/33-M2-N31S (H1N1) infected in MDCK cells assessed as inhibition of virus-induced cytopathic effect incubated for 48 hrs by crystal violet/neutral red staining based assay. In kind it is functional, organism-based. (In general: Cytopathic effects are the visible damage that an infection or toxin causes in cultured cells.)
The IC50 is the midpoint of a concentration-inhibition curve. For `CC(C)(N)C12CC3CC(CC(C3)C1)C2`, the IC50 is 30 nM.
For the compound `C[C@H](N)C12CC3CC(CC(C3)C1)C2`, the IC50 was 20 nM.
Same read-out and setting: with `NC12CC3CC(CC(C3)C1)C2` [AMANTADINE] the figure was 480 nM; with `CC(N)C12CC3CC(CC(C3)C1)C2` (racemic) [RIMANTADINE], 40 nM; with `C[C@@H](N)C12CC3CC(CC(C3)C1)C2`, 40 nM.

Another experiment relates to Oocyte. Description: Inhibition of influenza A virus A/WSN/33-M2-N31S (H1N1) M2 transmembrane domain V28I mutant expressed in Xenopus laevis oocytes assessed as inhibition of channel current at 100 uM measured after 5 mins by two-electrode voltage clamp assay relative to control. In kind it is cell-based.
The inhibition is the percentage by which the read-out fell short of the control. Regarding `CC(C)(N)C12CC3CC(CC(C3)C1)C2`, the inhibition is 80%.
Consider `C[C@H](N)C12CC3CC(CC(C3)C1)C2`, for which the inhibition stood at 92%.
The same measure, in the same setting: with `CC(N)C12CC3CC(CC(C3)C1)C2` (racemic) [RIMANTADINE] the figure was 93%; with `C[C@@H](N)C12CC3CC(CC(C3)C1)C2`, 90%.

A further experiment relates to Oocyte. Description: Inhibition of influenza A virus A/WSN/33-M2-N31S (H1N1) M2 transmembrane domain V28I mutant expressed in Xenopus laevis oocytes assessed as inhibition of channel current at 100 uM measured after 2 mins by two-electrode voltage clamp assay relative to control. In kind it is cell-based. In general terms: Two-electrode voltage clamp holds a large cell at a set potential and records current.
`CC(C)(N)C12CC3CC(CC(C3)C1)C2`: the inhibition came out at 56%.
Still for that read-out and setting: the value for `C[C@H](N)C12CC3CC(CC(C3)C1)C2` was 78%; that for `CC(N)C12CC3CC(CC(C3)C1)C2` (racemic) [RIMANTADINE] was 84%.
On the same count and under the same terms, the value for `C[C@@H](N)C12CC3CC(CC(C3)C1)C2` was 71%.
